Several values for one entry are separate records, joined by “and”; a condition that tells them apart may be missing. Equal entries are not always repeated.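 Five compound concentrations were applied to cells in 96-well plates for 48 hours; endpoints were derived by simple linear interpolation of the resulting dose-response curve. The concentration for 50% growth inhibition is given as GI50. At the TGI there is no net growth.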
Legend:
Assay in all cases: NCI tumour cell line growth inhibition, 48 h
[1] = tested on: NCI-H522 lung
[2] = tested on: NCI/ADR-RES ovarian
[3] = tested on: ACHN renal
[4] = tested on: MALME-3M melanoma
[5] = tested on: SF-295 CNS
[6] = tested on: HCT-116 colon
[7] = tested on: OVCAR-5 ovarian
[8] = tested on: NCI-H23 lung
[9] = tested on: HOP-62 NSCLC
[10] = tested on: RPMI-8226 leukemia

SMILES	GI50 [1]	TGI [1] [µM]	GI50 [2] [µM]	TGI [2] [µM]	GI50 [3] [µM]	TGI [3] [µM]	GI50 [4] [µM]	TGI [4] [µM]	GI50 [5]	TGI [5] [µM]	GI50 [6]	TGI [6] [µM]	GI50 [7] [µM]	TGI [7] [µM]	GI50 [8]	TGI [8] [µM]	GI50 [9]	TGI [9] [µM]	GI50 [10]	TGI [10] [µM]
C=CCSc1n[nH]c(-c2cccs2)n1	> 100 µM	> 100	> 100	> 100	> 100	> 100	> 100	> 100	> 100 µM	> 100	> 100 µM	> 100	> 100	> 100	> 100 µM	> 100	> 100 µM	> 100	> 100 µM	> 100
C=C1CC2(OC1=O)c1ccccc1CCc1ccccc12		3.14		3.04		3.33		4.25		29.8		2.75		27.7		23		44		7.24
CC1=COC2=C(C)C(=O)C(=O)c3c(C)ccc1c32		8.27		7.87		29.5		16		18.8		20.6		34.8		14.3		> 36.9		97.2
N#Cc1c(NC(=O)CCC(=O)O)ccc2ccccc12		> 100		> 100		> 100		> 100		> 100		> 100		> 100		> 100		> 100		> 100
COc1ccc(/C=N/NC(=O)O)cc1		> 100		> 100		> 100		> 100		> 100		> 100		> 100		> 100		> 100		> 100
Nc1cc(C(F)F)c(-c2nc(N3[C@@H]4CC[C@H]3COC4)nc(N3[C@@H]4CC[C@H]3COC4)n2)cn1	0.295 µM	> 100	0.603	39.5	0.302	> 100	0.0713	0.877	0.19 µM	1.78	0.769 µM	> 100	0.3	43	0.652 µM	> 100	0.161 µM	2.36	0.237 µM	
COc1ccc2[nH]cc(/C=C3\C(=O)Nc4ccccc43)c2c1	4.59 µM	19.6	4.97	37	5.85	37.5	11.2	49.1	10.8 µM	30	3.41 µM	14.5	11.6	42	10.5 µM	49.6	5.18 µM	19.8	2.35 µM	6.84
CCOC(=O)C(=Cc1ccc(Br)cc1)C(=O)OCC	1.75 µM	4.22	2.78	> 20.4	2.09	4.45	2.32	5.59	2.74 µM	9.36	1.4 µM	2.92	2.66	6.52	2.32 µM	5.7	2.78 µM	5.47	0.27 µM	1.32
NC(C(=O)O)C(N)C(=O)O (configuration not stated)		> 100		> 100		> 100		> 100		> 100		> 100		> 100		> 100		> 100		> 100
O=[N+]([O-])c1ccc2nc(N/N=C/c3ccc(O)cc3)sc2c1	1.49 µM	10.2	3.86	> 100	4.63	> 100	19.7	> 100	5.61 µM	> 100	2.89 µM	> 100	18.9	> 100	5.22 µM	> 100	8.82 µM	30.7	2.56 µM	15.8
CS(=O)(=O)c1ccc(C(F)(F)F)cc1NC(=O)Nc1cnc(Oc2ccc(-c3cc(Cl)cnc3N)cc2)nc1	2.23 µM	6.64	2.92	> 31	1.98	6.32	2.05	5.29	1.99 µM	5.71	2.17 µM	4.82	3.1	15.9	2.56 µM	7.69	3.27 µM	12.5	2.33 µM	6.53
O=[N+]([O-])c1ccc(N(CCO)CCO)c2c1no[n+]2[O-]	0.926 µM	3.38	1.44	6.41	0.768	5.12	1.57	4.64	0.803 µM	3.38	1.1 µM	3.03	2.78	10.3	1.23 µM	4.2	1.39 µM	4.16	1.22 µM	4.08
CN(C)CCCC1(c2ccc(F)cc2)OCc2cc(-c3ccc4cc[nH]c4c3)ccc21 (configuration not stated)	2.07 µM	4.49	2.21	5.31	2.12	4.82	1.71	3.32	1.79 µM	3.31	1.88 µM	3.57	1.95	4.3	1.97 µM	4.11	1.71 µM	3.71	2.5 µM	6.04
N#Cc1ccc(-n2cnc(NC(=O)[C@H]3CCN(C#N)C3)c2)cc1	0.567 µM	4.43	2.41	> 86.8	2.55	> 100	0.312	6.58	2.79 µM	> 66.3	1.1 µM	9.27	3.3	> 100	1.78 µM	12.6	2.28 µM	15.5	1.71 µM	7.46
NC(=O)c1c(OCc2c(F)cc(Br)cc2F)nsc1NC(=O)NCCCCN1CCCC1	1.83 µM	5.32	5.82	> 10	1.18	5.25	1.73	3.41	2.26 µM	> 10	2.22 µM	8.41	3.1	> 10	5.18 µM	> 10	1.58 µM	> 10	2.4 µM	6
COc1ccc(OC)c(-c2nc3sccn3c2/C=C2/C(=O)Nc3ccccc32)c1	0.294 µM	17.3	1.42	7.76	0.61	15.9	0.979	21.2	0.248 µM	0.635	0.142 µM	1.52	0.437	12.8	0.255 µM	1.69	0.123 µM	4.41	0.241 µM	0.856
O=c1cccc(C#CCCCCOC2CCCO2)o1 (configuration not stated)	3.77 µM	> 64.9	12.2	> 18	27.5	60.5	16.5	47	18.4 µM	> 41.4	6.39 µM	> 23.2	19.7	> 41.2	5 µM	14.9	7.88 µM	18.2	2.93 µM	63.7
O=S(=O)(Nc1ccc(Cl)c(C(F)(F)F)c1)c1ccc(-c2cnc(C3CC3)o2)cc1	0.149 µM	3.25	0.163	2.43	0.789	6.88	0.624	4.41	0.131 µM	2.12	0.187 µM	4.14	1.51	7.24	1.37 µM	6.37	0.615 µM	4.88	1.35 µM	5.64
O=C(c1cccs1)c1c(C(F)(F)F)n([O-])c2cc(F)c(F)cc2[n+]1=O	1.84 µM	3.13	2.1	4.77	0.419	1.4	0.79	1.52	3.71 µM	7.3	1.82 µM	8.01	3.57	5.58	2.26 µM	4.94	3.77 µM	6.21	0.501 µM	3.51
NC(N)=NC(N)=NCCc1ccccc1	44.7 µM and > 100 µM	> 100	> 100	> 100	> 100	> 100	72	> 100	53.2 µM and > 100 µM	> 100	92.5 µM and 36.3 µM	> 100	> 100	> 100	50.5 µM and 34.7 µM	> 100	37.4 µM and > 100 µM	> 100	11.1 µM and 7.54 µM	> 100
O=C1/C(=C\c2ccccc2)c2ccccc2N1Cc1ccccc1		22		19.2		25.1		12.8		16.2		12.4		15.2		16.8		17.6		9.28
C/C=C(/C)C(=O)OC1C=C(CO)C(=O)C(OC(=O)/C(C)=C\C)C1C(C)C (configuration not stated)	0.63 µM	2.23	1.57	6.11	0.541	1.69	0.61	1.63	1.82 µM	3.35	0.49 µM	1.67	0.976	2.5	1.5 µM	3.23	2.03 µM	3.73	0.337 µM	1.37
CCOC(=O)c1c(C)c2c(n1C)CSc1cc(S(=O)(=O)c3ccccc3)c(=O)[nH]c1-2	25.4 µM	> 100	22.6	> 100	26.3	> 100	35.1	> 100	14 µM	61.9	22.7 µM	86.9	45.6	> 100	28.6 µM	> 100	31.5 µM	89.9	14.8 µM	> 100
CNC(=O)OCc1nc(S(C)=O)n(C)c1COC(=O)NC (configuration not stated)		> 100		> 100		> 78.6		> 100		> 100		> 100		> 100		> 100		> 100		> 100
C[C@]12CC[C@@H]3c4ccc(O)cc4CC[C@H]3[C@@H]1CC[C@@H]2NS(=O)(=O)c1cccc(Br)c1	2.36 µM	11.4	3.14	13.6	2.91	8.61	2.27	7.58	3.19 µM	11.7	3.03 µM	10.2	4.09	16.3	3.89 µM	17	10.4 µM	22.5	3.41 µM	17.3
Cc1cc(N2CCN(C)CC2)nc(NC2CCCC(Nc3ccnc4cc(Cl)ccc34)C2)n1 (configuration not stated)	2.29 µM	5.3	3.34	13.3	1.86	3.51	1.82	3.45	1.68 µM	3.25	1.46 µM	3.74	2.88	9.88	4.19 µM	17.7	2.22 µM	6.03	1.68 µM	4.95
COC(=O)c1c2c(c(C)[n+]([O-])c1C)C(=O)C(NCc1ccc(F)c(Cl)c1)=CC2=O	1.82 µM	4.7	2.08	6.92	2.1	7.9	0.214	0.658	1.62 µM	4.26	2.34 µM	10.2	1.66	3.82	1.74 µM	4.77	2.96 µM	23.1	3.08 µM	24.1
Cc1ccc(NC2=C(Cl)C(=O)c3nc(C)ccc3C2=O)cc1	1.88 µM	4.53	1.73	4.62	1.59	2.97	1.75	3.23	1.55 µM	2.95	1.32 µM	2.68	1.87	3.62			0.836 µM	2.58	1.41 µM	4.2

Reference: PubChem BioAssay (NCI)
